Laboratory results reported in patent publication US12378243B2, “Quinoline compounds as inhibitors of KRAS” (Incyte Corporation, priority 2021, dated 2025).

What was measured:
KRAS G12D = KRAS G12D (Homo sapiens, UniProt P01116, G12D); assay: GDP-GTP exchange assay, KRAS G12D; assay type: biochemical; conditions: bodipy-loaded KRAS G12D 2.5 nM, GppNHp 500 uM, SOS1 150 nM; 4 hours pre-incubation, 2 hours incubation; read-out: G12D_exchange
Outline: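 Nucleotide exchange started with 1 mM GppNHp and 300 nM SOS1, then 2 h at ambient temperature. IC50 from four-parameter logistic fit with variable Hill slope.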

KRAS G12V mutant = KRAS G12V mutant (Homo sapiens, UniProt P01116, G12V); assay: GDP-GTP exchange assay, KRAS G12V; assay type: biochemical; conditions: bodipy loaded KRAS G12V 2.5 nM; 3 hours incubation after adding GppNHp-SOS1 mixture; read-out: G12V_exchange
KRAS G12V mutant, sequence (P01116 1-188 isoform P01116-2 G12V): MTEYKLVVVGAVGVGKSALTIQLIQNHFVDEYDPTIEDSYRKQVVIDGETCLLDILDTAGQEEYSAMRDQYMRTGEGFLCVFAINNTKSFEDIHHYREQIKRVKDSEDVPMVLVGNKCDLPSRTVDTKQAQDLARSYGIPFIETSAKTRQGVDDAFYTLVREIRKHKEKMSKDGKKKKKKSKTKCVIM

Caco-2 cells = assay: Caco2 assay (permeability, A-B); assay type: in vitro ADME; conditions: Papp absorptive direction (A-B), test compound 50 μM, 120 minutes at 37° C.
Outline: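 Caco-2 monolayers grown 22-25 days on Transwells, used only at TEER ≥300 Ω·cm^2. Compound at 50 μM in HBSS added apically, receiver HBSS with 4% BSA; 120 min at 37 °C. LCMS quantification; Papp from receiver flux slope, membrane area and initial donor amount.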

KRAS G12D, sequence (P01116 1-188 isoform P01116-2 G12D): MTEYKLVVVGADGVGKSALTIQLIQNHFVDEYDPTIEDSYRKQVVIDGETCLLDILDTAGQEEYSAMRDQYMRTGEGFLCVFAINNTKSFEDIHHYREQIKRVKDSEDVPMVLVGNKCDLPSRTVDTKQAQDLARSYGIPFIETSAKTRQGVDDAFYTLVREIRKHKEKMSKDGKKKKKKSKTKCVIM

Compound	IC50 (KRAS G12D) [nM]	IC50 (KRAS G12V mutant) [nM]	Caco-2 (Caco-2 cells; Table 4)	Caco-2 (Caco-2 cells; Table 3)
CNC(=O)c1ncc(-c2nc3c(F)c(-c4cccc(Cl)c4Cl)c(CCC#N)cc3c3c2cc([C@H]2CCCN2C(=O)OC)n3[C@H]2[C@H]3CN[C@@H]2C3)cc1F [Example 39, Methyl (2R)-2-(1-((1R,4R,5S)-2-azabicyclo[2.1.1]hexan-5-yl)-8-(2-cyanoethyl)-7-(2,3-dichlorophenyl)-6-fluoro-4-(5-fluoro-6-(methylcarbamoyl)pyridin-3-yl)-1H-pyrrolo[3,2-c]quinolin-2-yl)pyrrolidine-1-carboxylate]	< 100	< 100	++ (a Caco-2 value of >0.5 but ≤1)	
COC(=O)N1CCC[C@@H]1c1cc2c(-c3ccc(C(C)(C)O)nc3)nc3c(F)c(-c4cccc(Cl)c4Cl)c(CCC#N)cc3c2n1[C@H]1[C@H]2CN[C@@H]1C2 [Example 40, Methyl (2R)-2-(1-((1R,4R,5S)-2-azabicyclo[2.1.1]hexan-5-yl)-8-(2-cyanoethyl)-7-(2,3-dichlorophenyl)-6-fluoro-4-(6-(2-hydroxypropan-2-yl)pyridin-3-yl)-1H-pyrrolo[3,2-c]quinolin-2-yl)pyrrolidine-1-carboxylate]	< 100	< 100	++ (a Caco-2 value of >0.5 but ≤1)	
CCOc1nc2c(F)c(-c3cc(O)cc4ccccc34)c(CCC#N)cc2c2c1cc(C(C)N1CCOCC1=O)n2[C@H]1[C@H]2CN[C@@H]1C2 (stereo partly drawn) [Example 18, 3-(1-((1R,4R,5S)-2-azabicyclo[2.1.1]hexan-5-yl)-4-ethoxy-6-fluoro-7-(3-hydroxynaphthalen-1-yl)-2-(1-(3-oxomorpholino)ethyl)-1H-pyrrolo[3,2-c]quinolin-8-yl)propanenitrile]	< 100	< 100		+ (a Caco-2 value of 50.5)
Cc1cc2c(O[C@@H](C)[C@@H]3CCCN3C)nc3c(F)c(-c4cccc5ccc(F)cc45)c(CCC#N)cc3c2n1[C@H]1[C@H]2CN[C@@H]1C2 [Example 27, 3-(1-((1R,4R,5S)-2-Azabicyclo[2.1.1]hexan-5-yl)-6-fluoro-7-(7-fluoronaphthalen-1-yl)-2-methyl-4-((S)-1-((S)-1-methylpyrrolidin-2-yl)ethoxy)-1H-pyrrolo[3,2-c]quinolin-8-yl)propanenitrile]	< 100	< 100		+ (a Caco-2 value of 50.5)
CC(O)c1nc2c(F)c(-c3cccc(Cl)c3Cl)c(CCC#N)cc2c2c1cc([C@H]1C[C@H]3C[C@H]3N1C(=O)C1(C)CC1)n2[C@H]1[C@H]2CN[C@@H]1C2 (stereo partly drawn) [Example 62, 3-(1-((1R,4R,5S)-2-Azabicyclo[2.1.1]hexan-5-yl)-7-(2,3-dichlorophenyl)-6-fluoro-4-(1-hydroxyethyl)-2-((1R,3R,5R)-2-(1-methylcyclopropane-1-carbonyl)-2-azabicyclo[3.1.0]hexan-3-yl)-1H-pyrrolo[3,2-c]quinolin-8-yl)propanenitrile]	< 100	< 100	+++ (a Caco-2 value of >1)	
Cc1cc2c(nc(O[C@@H](C)[C@@H]3CCCN3C)c3cc(CN4CCOCC4=O)n([C@H]4[C@H]5CN[C@@H]4C5)c32)c(F)c1-c1cccc2cccc(C#N)c12 (single isomer, unassigned) [Example 8]	< 100	< 100		+ (a Caco-2 value of 50.5)
C[C@H](Oc1nc2c(F)c(-c3csc4ccccc34)c(CCC#N)cc2c2c1cc(CN1CCCC1=O)n2[C@H]1[C@H]2CN[C@@H]1C2)[C@@H]1CCCN1C (single isomer, unassigned) [Example 9]	< 100	< 100		+ (a Caco-2 value of 50.5)
Cc1cc2c(nc(O[C@@H](C)[C@@H]3CCCN3C)c3cc(CN4CCOC4=O)n([C@H]4[C@H]5CN[C@@H]4C5)c32)c(F)c1-c1cc(O)cc2ccccc12 [Example 5, 3-((1-((1R,4R,5S)-2-Azabicyclo[2.1.1]hexan-5-yl)-6-fluoro-7-(3-hydroxynaphthalen-1-yl)-8-methyl-4-((S)-1-((S)-1-methylpyrrolidin-2-yl)ethoxy)-1H-pyrrolo[3,2-c]quinolin-2-yl)methyl)oxazolidin-2-one]	< 100	< 100		+ (a Caco-2 value of 50.5)
CCOC(=O)N1CCC[C@@H]1c1cc2c(-c3ccc(C(C)(C)O)nc3)nc3c(F)c(-c4cccc(Cl)c4Cl)c(CCC#N)cc3c2n1[C@H]1[C@H]2CN[C@@H]1C2 [Example 41, Ethyl (2R)-2-(1-((1R,4R,5S)-2-azabicyclo[2.1.1]hexan-5-yl)-8-(2-cyanoethyl)-7-(2,3-dichlorophenyl)-6-fluoro-4-(6-(2-hydroxypropan-2-yl)pyridin-3-yl)-1H-pyrrolo[3,2-c]quinolin-2-yl)pyrrolidine-1-carboxylate]	< 100	< 100	+++ (a Caco-2 value of >1)	
